Reference: PubChem BioAssay (NCI)
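A five-concentration, 48-hour dose response in 96-well plates underlies each endpoint, interpolated linearly between surrounding concentrations. GI50: concentration for 50% inhibition of growth. TGI denotes the concentration required for complete inhibition of growth.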

How the values were obtained:
Assay in all cases: growth of human tumour cells (NCI), 48 h
[1] = system: A498 renal
[2] = system: HOP-62 NSCLC
[3] = system: IGROV1 ovarian
[4] = system: MCF7 breast
[5] = system: MDA-MB-231 breast
[6] = system: NCI-H522 lung
[7] = system: OVCAR-5 ovarian
[8] = system: PC-3 prostate
[9] = system: RXF 393 renal
[10] = system: SK-MEL-5 melanoma

Structure (SMILES)	GI50 [1] [µM]	TGI [1] [µM]	GI50 [2] [µM]	TGI [2] [µM]	GI50 [3] [µM]	TGI [3] [µM]	GI50 [4] [µM]	TGI [4] [µM]	GI50 [5] [µM]	TGI [5] [µM]	GI50 [6] [µM]	TGI [6] [µM]	GI50 [7] [µM]	TGI [7] [µM]	GI50 [8] [µM]	TGI [8] [µM]	GI50 [9] [µM]	TGI [9] [µM]	GI50 [10] [µM]	TGI [10] [µM]
Cn1c(=O)c(Cc2ccc(F)cc2F)cc2cnc(NC3CCOCC3)nc21	12.3	> 25	> 25	> 25	> 25	> 25	> 25	> 25	> 16.2	> 25	> 25	> 25	> 25	> 25	> 25	> 25	18.5	> 25	11.8	> 25
O=C(Nc1ccccc1Cl)c1ccc(NC2=C(Cl)C(=O)N(Cc3ccccc3)C2=O)cc1	> 100	> 100	41.2	> 100	46.4	> 100	17.2	36	31.3	91.9	17.9	38.8	> 100	> 100	40	> 100	18.4	38.2	32.7	> 100
Oc1ccc2ccccc2c1/C=N\Nc1ccccn1	1.25	7.03	0.416	17	0.273	2.05	0.895	> 34	0.463	> 43	0.413		4.25	> 100	0.933	> 100	1.55	> 57.4	1.57	> 50.1
COc1ccc(Cc2ccccc2C(=O)O)c2ccccc12		57.9		> 100		65.1		> 100		> 100		55.4		59.6		> 100		> 100		32.9
CC1=C(C)C(=O)C(C(C)C2=C(C)C(=O)C(C)=C(C)C2=O)=C(C)C1=O	25.2	> 100	> 100	> 100	48.9	> 100	29	> 100	13.8	30.4	30.5	> 100	47	> 100	20.9	> 100	31.7	82.7	12.5	64.6
O=C1NC(=NCc2ccccn2)S/C1=C\c1ccc2ncccc2c1	3.95	> 18.8	13.2	> 25	17.8	> 25	8.75	> 25	17.8	> 25	7.61	> 18.8	> 25	> 25	> 25	> 25	8.8	> 25	13	> 25
Cc1ccc(Cl)cc1Nc1nc(C(F)(F)F)ccc1C(=O)Oc1ccc(Cl)cc1	11.9	33.2	8.88	23.1	11.1	> 100	16.8	> 100	4.53	20.6	22.3	> 100	10.5	27.5	5.85	21.1	3.97	16	7.01	26.8
COc1cc(/C=C/C(=O)c2ccc(Nc3nc(Nc4ccc(F)cc4)nc(Nc4ccc(F)cc4)n3)cc2)cc(OC)c1OC	15.7	49	5.26	> 100	3.59	> 100	5.26	> 100	15.8	> 100	3.1	> 100	20.5	> 100	3.18	> 100	2.74	7.49	3.4	30.4
O=C1c2cccnc2-c2nc(-c3ccc([N+](=O)[O-])cc3)cc3c2c1nc1ccccc13	24.2	65.5	12.2	28.3	7.09	26	1.86	> 21.5	7.97	> 100	2	6.95	12.5	27.5	3.95	> 100	9.37	37.7	0.825	2.45
Cc1ccc(/C=C(\C#N)n2nnc3cc(F)c(F)cc32)cc1	2.51	7.84	1.52	3.64	3.43	32.1	2.45	> 100	3.33	12.8	0.291	1.12	3.39	> 100	5.16	24.3	3.28	13.5	3.65	14.2
NCCOc1ccccn1		> 100		> 100		> 100		> 100		> 100		> 100		> 100		> 100		> 100		> 100
COc1cc2c(/C=C3\C(=O)Nc4ccc(Br)cc43)c(Cl)n(C)c2cc1C	0.419	1.62	0.813	4.47			0.322	6.53	2.63	10.5	1.66	4.29	4.11	15.9	1.17	18.3	1.71	7.33	1.41	2.99
Fc1ccc(Nc2nc(Nc3ccc(-c4nc5ccccc5[nH]4)cc3)nc(N3CCCC3)n2)cc1	12.8	25.7	2.12	5.09			1.9	5.22	1.87	4.35	2.16	4.91	2.93	8.19	2.74	8.05	2.17	4.57	11.8	24.4
